In ChEMBL document CHEMBL1201862, “PubChem BioAssay data set” (2004):
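Five compound concentrations were applied to cells in 96-well plates for 48 hours; endpoints were derived by simple linear interpolation of the resulting dose-response curve. At the GI50, growth is halved.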 Activity calls are given as the source filed them. Cut-off read from the data, not from the text of the source: active = GI50 up to about 1.1 µM and inactive = higher.

How the values were obtained:
Test in all cases: NCI anticancer screen, dose series, 48 h
K562 = system: K562
Malme-3M = system: Malme-3M
HCC 2998 = system: HCC 2998
OVCAR-8 = system: OVCAR-8
DMS-114 = system: DMS-114
HCT-15 = system: HCT-15
NCI-H522 = system: NCI-H522
A549 = system: A549
SK-MEL-5 = system: SK-MEL-5
HT-29 = system: HT-29
SK-OV-3 = system: SK-OV-3
SK-MEL-28 = system: SK-MEL-28
TK-10 = system: TK-10
HOP-62 = system: HOP-62
LXFL 529 = system: LXFL 529
SR = system: SR
CCRF-CEM = system: CCRF-CEM
786-0 = system: 786-0
UO-31 = system: UO-31
SNB-19 = system: SNB-19
U-251 = system: U-251
M14 = system: M14
SK-MEL-2 = system: SK-MEL-2
IGROV-1 = system: IGROV-1
SF-295 = system: SF-295
OVCAR-3 = system: OVCAR-3
OVCAR-5 = system: OVCAR-5
UACC-62 = system: UACC-62
M19-MEL = system: M19-MEL
NCI-H23 = system: NCI-H23
SW-620 = system: SW-620
KM-20L2 = system: KM-20L2
MOLT-4 = system: MOLT-4
RXF 393 = system: RXF 393
NCI-H226 = system: NCI-H226
LOX IMVI = system: LOX IMVI
COLO 205 = system: COLO 205
HCT-116 = system: HCT-116
SF-539 = system: SF-539
CAKI-1 = system: CAKI-1
ACHN = system: ACHN
SF-268 = system: SF-268
DMS-273 = system: DMS-273
HL-60 = system: HL-60
NCI-H460 = system: NCI-H460
SNB-78 = system: SNB-78
SNB-75 = system: SNB-75
EKVX = system: EKVX
RPMI-8226 = system: RPMI-8226
DLD-1 = system: DLD-1
UACC-257 = system: UACC-257
SN12C = system: SN12C
HOP-18 = system: HOP-18
A498 = system: A498
OVCAR-4 = system: OVCAR-4
KM12 = system: KM12
HOP-92 = system: HOP-92

COC(=O)C1=C(C(=O)OC)C2C(C)=CC(C)=CN2C(C#N)=C(SC)S1 (stereo not given)
GI50 (K562): 20.7 µM (inactive) | GI50 (Malme-3M): 24.7 µM (inactive) | GI50 (HCC 2998): 37.2 µM (inactive) | GI50 (OVCAR-8): 22.4 µM (inactive) | GI50 (DMS-114): 22.6 µM (inactive) | GI50 (HCT-15): 19.7 µM | GI50 (NCI-H522): 16.1 µM (inactive) | GI50 (A549): 37.2 µM (inactive) | GI50 (SK-MEL-5): 14.6 µM (inactive) | GI50 (HT-29): 21.1 µM (inactive) | GI50 (SK-OV-3): 46.3 µM (inactive) | GI50 (SK-MEL-28): 19.3 µM (inactive) | GI50 (TK-10): 35.2 µM (inactive) | GI50 (HOP-62): 51.8 µM (inactive) | GI50 (LXFL 529): 16.9 µM (inactive) | GI50 (SR): 19 µM (inactive) | GI50 (CCRF-CEM): 17.4 µM (inactive) | GI50 (786-0): 30.8 µM (inactive) | GI50 (UO-31): 12.7 µM (inactive) | GI50 (SNB-19): 52.4 µM (inactive) | GI50 (U-251): 31 µM (inactive) | GI50 (M14): 18 µM (inactive) | GI50 (SK-MEL-2): 23.1 µM (inactive) | GI50 (IGROV-1): > 10 µM (inactive) | GI50 (SF-295): 31 µM (inactive) | GI50 (OVCAR-3): 28.4 µM (inactive) | GI50 (OVCAR-5): 35.3 µM (inactive) | GI50 (UACC-62): > 10 µM (inactive) | GI50 (M19-MEL): 17.7 µM (inactive) | GI50 (NCI-H23): 17.7 µM (inactive) | GI50 (SW-620): 19.9 µM (inactive) | GI50 (KM-20L2): 32.7 µM (inactive) | GI50 (MOLT-4): 23.6 µM (inactive) | GI50 (RXF 393): 16.1 µM (inactive) | GI50 (NCI-H226): 17 µM (inactive) | GI50 (LOX IMVI): 17.9 µM (inactive) | GI50 (COLO 205): 17.4 µM (inactive) | GI50 (HCT-116): 15 µM (inactive) | GI50 (SF-539): 19.2 µM (inactive) | GI50 (CAKI-1): 20.3 µM (inactive) | GI50 (ACHN): 28.4 µM (inactive) | GI50 (SF-268): 20.6 µM (inactive) | GI50 (DMS-273): 31.8 µM (inactive) | GI50 (HL-60): 19.5 µM (inactive) | GI50 (NCI-H460): > 100 µM (inactive) | GI50 (SNB-78): 41.3 µM (inactive) | GI50 (SNB-75): 23.2 µM (inactive) | GI50 (EKVX): 25.9 µM (inactive) | GI50 (RPMI-8226): 21.6 µM (inactive) | GI50 (DLD-1): 22.6 µM (inactive) | GI50 (UACC-257): 24.3 µM (inactive) | GI50 (SN12C): 21.4 µM (inactive)

COc1cc(CCc2cccnc2)cc(OC)c1OC
GI50 (K562): > 100 µM (inactive) | GI50 (Malme-3M): > 100 µM (inactive) | GI50 (OVCAR-8): > 100 µM (inactive) | GI50 (DMS-114): 77.4 µM (inactive) | GI50 (HCT-15): > 100 µM | GI50 (NCI-H522): 65.8 µM (inactive) | GI50 (A549): > 100 µM (inactive) | GI50 (SK-MEL-5): > 100 µM (inactive) | GI50 (HT-29): > 100 µM (inactive) | GI50 (SK-MEL-28): > 100 µM (inactive) | GI50 (TK-10): > 100 µM (inactive) | GI50 (HOP-62): > 100 µM (inactive) | GI50 (HOP-18): > 100 µM (inactive) | GI50 (LXFL 529): > 100 µM (inactive) | GI50 (A498): > 100 µM (inactive) | GI50 (CCRF-CEM): > 100 µM (inactive) | GI50 (786-0): > 100 µM (inactive) | GI50 (UO-31): > 100 µM (inactive) | GI50 (SNB-19): > 100 µM (inactive) | GI50 (U-251): > 100 µM (inactive) | GI50 (M14): > 100 µM (inactive) | GI50 (OVCAR-4): > 100 µM (inactive) | GI50 (KM12): > 100 µM (inactive) | GI50 (IGROV-1): > 100 µM (inactive) | GI50 (SF-295): > 100 µM (inactive) | GI50 (OVCAR-3): > 100 µM (inactive) | GI50 (OVCAR-5): 38.5 µM (inactive) | GI50 (UACC-62): > 100 µM (inactive) | GI50 (M19-MEL): > 100 µM (inactive) | GI50 (NCI-H23): > 100 µM (inactive) | GI50 (SW-620): > 100 µM (inactive) | GI50 (KM-20L2): > 100 µM (inactive) | GI50 (MOLT-4): > 100 µM (inactive) | GI50 (RXF 393): > 100 µM (inactive) | GI50 (NCI-H226): > 100 µM (inactive) | GI50 (LOX IMVI): > 100 µM (inactive) | GI50 (COLO 205): > 100 µM (inactive) | GI50 (HCT-116): > 100 µM (inactive) | GI50 (SF-539): > 100 µM (inactive) | GI50 (CAKI-1): > 100 µM (inactive) | GI50 (ACHN): > 100 µM (inactive) | GI50 (SF-268): > 100 µM (inactive) | GI50 (DMS-273): > 100 µM (inactive) | GI50 (HL-60): > 100 µM (inactive) | GI50 (NCI-H460): > 100 µM (inactive) | GI50 (SNB-78): > 100 µM (inactive) | GI50 (SNB-75): 51.1 µM (inactive) | GI50 (EKVX): > 100 µM (inactive) | GI50 (RPMI-8226): > 100 µM (inactive) | GI50 (DLD-1): > 100 µM (inactive) | GI50 (UACC-257): > 100 µM (inactive) | GI50 (SN12C): > 100 µM (inactive) | GI50 (HOP-92): 30.3 µM (inactive)
